Here are results for 27 compounds from patent US11702404B2, “GLP-1R modulating compounds” (priority 2019, dated 2023).

Read-outs that look alike come from different tables or passages of the source. Some results are limits rather than exact numbers.

The target in one series is GLP-1R (Homo sapiens, UniProt P43220). Put plainly: GLP-1R activation: cAMP increase in CHO cells stably expressing GLP-1R. Type of series: cell-based.
A short description of series [1]: Microsomal stability, human liver microsomes (predicted hepatic clearance). Conditions: predicted from in vitro microsomal stability data.
The mark [2] stands for this setting: cAMP increase, CHO cells stably expressing GLP-1R, 10 point dose response, 30 minutes incubation, read-out: EC50.

GLP-1R, sequence (P43220 24-463): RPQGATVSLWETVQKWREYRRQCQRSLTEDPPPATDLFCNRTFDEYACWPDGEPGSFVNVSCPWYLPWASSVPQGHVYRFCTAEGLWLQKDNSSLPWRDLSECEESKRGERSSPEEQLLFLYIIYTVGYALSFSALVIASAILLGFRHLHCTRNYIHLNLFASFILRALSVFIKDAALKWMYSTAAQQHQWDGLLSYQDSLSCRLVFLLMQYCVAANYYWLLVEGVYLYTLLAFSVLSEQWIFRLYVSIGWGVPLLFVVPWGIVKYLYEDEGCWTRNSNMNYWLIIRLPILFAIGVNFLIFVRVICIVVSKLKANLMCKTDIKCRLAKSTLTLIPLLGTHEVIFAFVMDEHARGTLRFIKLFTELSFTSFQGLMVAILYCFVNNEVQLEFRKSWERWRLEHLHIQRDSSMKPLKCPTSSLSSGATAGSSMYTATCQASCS

On to `COCCn1c(Cc2cc(F)c(-c3cccc(OCc4cc(F)c(Cl)cc4F)n3)cc2F)nc2ccc(C(=O)O)cc21` [Example 564, 2-(4-(6-((4-chloro-2,5-difluorobenzyl)oxy)pyridin-2-yl)-2,5-difluorobenzyl)-1-(2-methoxyethyl)-1H-benzo[d]imidazole-6-carboxylic acid], for which the concentration for a half-maximal effect (EC50) at GLP-1R (setting [2]) is 1.96 nM. Also, the “Predicted Hepatic Clearance (Pred. Cl.)” value in series [1] was 3.42 mL/min/kg.
The like results for `NC(=O)c1cc(F)c(COc2cccc(-c3cc(F)c(Cc4nc5ccc(C(=O)O)cc5n4C[C@@H]4CCO4)cc3F)n2)cn1` [Example 854, (S)-2-(4-(6-((6-carbamoyl-4-fluoropyridin-3-yl)methoxy)pyridin-2-yl)-2,5-difluorobenzyl)-1-(oxetan-2-ylmethyl)-1H-benzo[d]imidazole-6-carboxylic acid] were, in that order, 0.55 nM and 2.33 mL/min/kg.
The like results for `COCCn1c(Cc2cc(F)c(-c3cccc(OCc4ccc(C#N)cc4F)n3)cc2F)nc2cc(OC)c(C(=O)O)cc21` [Example 836] were, in that order, 9.29 nM and 1.83 mL/min/kg.
In turn, `COCCn1c(Cc2cc(F)c(-c3cccc(OCc4ccc(C#N)c(F)c4)n3)cc2F)nc2ccc(C(=O)O)cc21` [Example 603, 2-(4-(6-((4-cyano-3-fluorobenzyl)oxy)pyridin-2-yl)-2,5-difluorobenzyl)-1-(2-methoxyethyl)-1H-benzo[d]imidazole-6-carboxylic acid] yielded a concentration for a half-maximal effect (EC50) at GLP-1R (EC50 (nM)) of 4.13 nM. For the same compound, the “Predicted Hepatic Clearance (Pred. Cl.)” value in series [1] was 2.83 mL/min/kg.
With `N#Cc1ccc(COc2cccc(-c3cc(F)c(Cc4nc5ccc(C(=O)O)cc5n4C[C@@H]4CCO4)cc3F)n2)cc1` [Example 536, (S)-2-(4-(6-((4-cyanobenzyl)oxy)pyridin-2-yl)-2,5-difluorobenzyl)-1-(oxetan-2-ylmethyl)-1H-benzo[d]imidazole-6-carboxylic acid], the EC50 on GLP-1R (setting [2]) came to 0.04 nM. Besides, the “Predicted Hepatic Clearance (Pred. Cl.)” value in series [1] was 2.42 mL/min/kg.
As for `N#Cc1ccc(COc2cccc(-c3cc(F)c(Cc4nc5ccc(C(=O)O)cc5n4CC45CC(CO4)C5)cc3F)n2)c(F)c1` [Example 898, 1-((2-oxabicyclo[2.1.1]hexan-1-yl)methyl)-2-(4-(6-((4-cyano-2-fluorobenzyl)oxy)pyridin-2-yl)-2,5-difluorobenzyl)-1H-benzo[d]imidazole-6-carboxylic acid], the EC50 at GLP-1R (setting [2]) stood at 1.5 nM. For the same compound, the “Predicted Hepatic Clearance (Pred. Cl.)” value in series [1] was 9.67 mL/min/kg.
In the same order, the values of `CC1(Cn2c(Cc3ccc(-c4cccc(OCc5ccc(C#N)cc5F)n4)cc3F)nc3ccc(C(=O)O)cc32)CC1` [Example 9, 2-(4-(6-((4-cyano-2-fluorobenzyl)oxy)pyridin-2-yl)-2-fluorobenzyl)-1-((1-methylcyclopropyl)methyl)-1H-benzo[d]imidazole-6-carboxylic acid] are 1.75 nM and under 1.83 mL/min/kg.
For `COCCn1c(Cc2cc(F)c(-c3ccc(OC)c(OCc4ccc(C#N)cc4F)n3)cc2F)nc2ccc(C(=O)O)cc21` [Example 541, 2-(4-(6-((4-cyano-2-fluorobenzyl)oxy)-5-methoxypyridin-2-yl)-2,5-difluorobenzyl)-1-(2-methoxyethyl)-1H-benzo[d]imidazole-6-carboxylic acid], on GLP-1R (setting [2]), the EC50 came out at 28.3 nM. For the same compound, the “Predicted Hepatic Clearance (Pred. Cl.)” value in series [1] was 3.67 mL/min/kg.
Consider `COCCn1c(Cc2ccc(-c3cccc(OCc4ncc(Cl)s4)n3)cc2F)nc2ccc(C(=O)O)cc21` [Example 592, 2-(4-(6-((5-chlorothiazol-2-yl)methoxy)pyridin-2-yl)-2-fluorobenzyl)-1-(2-methoxyethyl)-1H-benzo[d]imidazole-6-carboxylic acid], for which, on GLP-1R (setting [2]), the EC50 was found to be 33.3 nM. Besides, the “Predicted Hepatic Clearance (Pred. Cl.)” value in series [1] is 12 mL/min/kg.
As for `N#Cc1ccc(COc2nc(-c3cc(F)c(Cc4nc5ccc(C(=O)O)cc5n4C[C@@H]4CCO4)cc3F)ccc2F)c(F)c1` [Example 450, (S)-2-(4-(6-((4-cyano-2-fluorobenzyl)oxy)-5-fluoropyridin-2-yl)-2,5-difluorobenzyl)-1-(oxetan-2-ylmethyl)-1H-benzo[d]imidazole-6-carboxylic acid], the concentration giving a half-maximal response (EC50) at GLP-1R (setting [2]) was found to be 0.77 nM. The “Predicted Hepatic Clearance (Pred. Cl.)” value in series [1] was under 1.83 mL/min/kg.
In the same order, the values of `N#Cc1ccc(COc2cccc(-c3cc(F)c(Cc4nc5ccc(C(=O)O)cc5n4C[C@@H]4COCCO4)cc3F)n2)c(F)c1` [Example 642] are 5.14 nM and 2.67 mL/min/kg.
As for `N#Cc1ccc(COc2cccc(-c3cc(F)c(Cc4nc5c(F)cc(C(=O)O)cc5n4CCOC4CC4)cc3F)n2)c(F)c1` [Example 894], at GLP-1R (setting [2]), the concentration for a half-maximal effect (EC50) was found to be 2.68 nM. Besides, the “Predicted Hepatic Clearance (Pred. Cl.)” value in series [1] is 4.17 mL/min/kg.
With `COCCn1c(Cc2ccc(-c3cccc(OCc4ccc(C#N)cc4F)n3)cc2-c2ccsc2)nc2ccc(C(=O)O)cc21` [Example 176, 2-(4-(6-((4-cyano-2-fluorobenzyl)oxy)pyridin-2-yl)-2-(thiophen-3-yl)benzyl)-1-(2-methoxyethyl)-1H-benzo[d]imidazole-6-carboxylic acid], the half-maximal effective concentration (EC50) at GLP-1R (setting [2]) amounted to 273 nM. Moreover, the “Predicted Hepatic Clearance (Pred. Cl.)” value in series [1] was under 1.83 mL/min/kg.
As to `COCCn1c(Cc2cc(F)c(-c3cccc(OCc4ccc(-c5cc[nH]c(=O)c5)cc4F)n3)cc2F)nc2ccc(C(=O)O)cc21` [Example 912], the EC50 at GLP-1R (setting [2]) was 15.3 nM. Further, the “Predicted Hepatic Clearance (Pred. Cl.)” value in series [1] was 1.83 mL/min/kg.
Regarding `COc1cc(C#N)ncc1COc1cccc(-c2cc(F)c(Cc3nc4ccc(C(=O)O)cc4n3C[C@@H]3CCO3)cc2F)n1` [Example 850, (S)-2-(4-(6-((6-Cyano-4-methoxypyridin-3-yl)methoxy)pyridin-2-yl)-2,5-difluorobenzyl)-1-(oxetan-2-ylmethyl)-1H-benzo[d]imidazole-6-carboxylic acid], the EC50 on GLP-1R (setting [2]) is 0.23 nM. The “Predicted Hepatic Clearance (Pred. Cl.)” value in series [1] was 3.33 mL/min/kg.
Regarding `CN1C[C@@](C)(Cn2c(Cc3cc(F)c(-c4cccc(OCc5ccc(C#N)cc5F)n4)cc3F)nc3ccc(C(=O)O)cc32)C1=O` (racemic) [Example 272, 2-(4-(6-((4-cyano-2-fluorobenzyl)oxy)pyridin-2-yl)-2,5-difluorobenzyl)-1-((1,3-dimethyl-2-oxoazetidin-3-yl)methyl)-1H-benzo[d]imidazole-6-carboxylic acid], the 50% effective concentration (EC50) on GLP-1R (setting [2]) was found to be 1.66 nM. Besides, the “Predicted Hepatic Clearance (Pred. Cl.)” value in series [1] is 9.67 mL/min/kg.
In the case of `N#Cc1ccc(COc2cccc(-c3cc(F)c(Cc4nc5ccc(C(=O)O)cc5n4CC45COCC4C5)cc3F)n2)c(F)c1` (stereo not drawn) [Example 704], on GLP-1R (setting [2]), the EC50 was found to be 0.98 nM. Also, in series [1], the “Predicted Hepatic Clearance (Pred. Cl.)” value was 1.83 mL/min/kg.
In the same order, the values of `COC(Cn1c(Cc2ccc(-c3cccc(OCc4ccc(C#N)cc4F)n3)cc2F)nc2ccc(C(=O)O)cc21)C(N)=O` (single isomer, unassigned) [Example 334, 1-(3-amino-2-methoxy-3-oxopropyl)-2-(4-(6-((4-cyano-2-fluorobenzyl)oxy)pyridin-2-yl)-2-fluorobenzyl)-1H-benzo[d]imidazole-6-carboxylic acid] are 7.11 nM and 3.3 mL/min/kg.
The like results for `COCCn1c(Cc2ccc(-c3cccc(OCc4ccc(C(F)(F)F)cc4F)n3)cc2F)nc2ccc(C(=O)O)cc21` [Example 480, 2-[[2-fluoro-4-[6-[[2-fluoro-4-(trifluoromethyl)phenyl]methoxy]-2-pyridyl]phenyl]methyl]-3-(2-methoxyethyl)benzimidazole-5-carboxylic acid] were, in that order, 6.59 nM and under 1.83 mL/min/kg.
With `CN1CC2CC1(Cn1c(Cc3cc(F)c(-c4cccc(OCc5ccc(C#N)cc5F)n4)cc3F)nc3ccc(C(=O)O)cc31)C2` [Example 697], at GLP-1R (read-out: EC50), the 50% effective concentration (EC50) worked out at 25.6 nM. Also, the “Predicted Hepatic Clearance (Pred. Cl.)” value in series [1] is 1.83 mL/min/kg.
Turning to `N#Cc1ccc(COc2nc(-c3cc(F)c(Cc4nc5ccc(C(=O)O)cc5n4CCOC4CC4)cc3F)ccc2F)c(F)c1` [Example 900], the EC50 on GLP-1R (setting [2]) came out at 1.26 nM. The “Predicted Hepatic Clearance (Pred. Cl.)” value in series [1] is 1.83 mL/min/kg.
On to `N#Cc1ccc(COc2cccc(-c3cc(=O)n(Cc4nc5ccc(C(=O)O)cc5n4CC45CC(CO4)C5)cc3F)n2)c(F)c1` [Example 683], for which the EC50 at GLP-1R (setting [2]) was found to be 2.41 nM. The “Predicted Hepatic Clearance (Pred. Cl.)” value in series [1] is 6.5 mL/min/kg.
Turning to `COC[C@H](c1ccccc1)n1c(Cc2cc(F)c(-c3cccc(OCc4ccc(C#N)cc4F)n3)cc2F)nc2ccc(C(=O)O)cc21` [Example 717], at GLP-1R (setting [2]), the concentration giving a half-maximal response (EC50) stood at 41.5 nM. In series [1], the “Predicted Hepatic Clearance (Pred. Cl.)” value was 7.5 mL/min/kg.
`COCCn1c(Cc2ccc(-c3cccc(OCc4nccnc4OC)n3)cc2F)nc2ccc(C(=O)O)cc21` [Example 493, 2-(2-fluoro-4-(6-((3-methoxypyrazin-2-yl)methoxy)pyridin-2-yl)benzyl)-1-(2-methoxyethyl)-1H-benzo[d]imidazole-6-carboxylic acid]: the EC50 on GLP-1R (setting [2]) amounted to 255 nM. For the same compound, the “Predicted Hepatic Clearance (Pred. Cl.)” value in series [1] was 19.2 mL/min/kg.
With `N#Cc1ccc(COc2cccc(-c3cc(F)c(Cc4nc5ccc(C(=O)O)cc5n4Cc4ccon4)cc3F)n2)c(F)c1` [Example 486, 2-(4-(6-((4-cyano-2-fluorobenzyl)oxy)pyridin-2-yl)-2,5-difluorobenzyl)-1-(isoxazol-3-ylmethyl)-1H-benzo[d]imidazole-6-carboxylic acid], the 50% effective concentration (EC50) on GLP-1R (setting [2]) worked out at 1.05 nM. Moreover, in series [1], the “Predicted Hepatic Clearance (Pred. Cl.)” value is 5 mL/min/kg.
`COCCn1c(Cc2ccc(-c3ccnc(OCc4ccc(C#N)cc4OC)n3)c(F)c2)nc2ccc(C(=O)O)cc21` [Example 109, 2-(4-(2-((4-cyano-2-methoxybenzyl)oxy)pyrimidin-4-yl)-3-fluorobenzyl)-1-(2-methoxyethyl)-1H-benzo[d]imidazole-6-carboxylic acid]: the EC50 at GLP-1R (setting [2]) was 3.38 nM. Besides, the “Predicted Hepatic Clearance (Pred. Cl.)” value in series [1] was 12.3 mL/min/kg.
For the compound `COCCn1c(Cc2ccc(-c3cc(F)cc(OCc4ccc(C#N)cc4F)c3)cc2F)nc2ccc(C(=O)O)cc21` [Example 27, 2-((3′-((4-cyano-2-fluorobenzyl)oxy)-3,5′-difluoro-[1,1′-biphenyl]-4-yl)methyl)-1-(2-methoxyethyl)-1H-benzop[d]imidazole-6-carboxylic acid], the half-maximal effective concentration (EC50) on GLP-1R (setting [2]) came out at 78 nM. In addition, the “Predicted Hepatic Clearance (Pred. Cl.)” value in series [1] is 2.5 mL/min/kg.
